Patent US10613105B2, “Competitive immunoassay test system for detecting a pyrogen” (FRAUNHOFER-GESELLSCHAFT ZUR FORDERUNG DER ANGEWANDTEN …, priority 2014, dated 2020)

Target: T1, TLR4 (Homo sapiens, UniProt O00206)
T1 construct: purchased Hölzel Diagnostik GmbH 10146-H08B-100; host or cells: baculovirus insect cells
Assay: Surface plasmon resonance spectroscopy (Biacore T200), TLR4 immobilized on NTA sensor chip via his-tag
Format: binding
Conditions: for Ka in 1/M / Kd: HBS-P+ with 50 μM EDTA, 20° C., 10 μL/min, 5 concentrations
From the text: The affinity of a ligand to its receptor describes the tendency thereof to enter into a bond with the receptor. The greater affinity, the greater the association constant Ka is. The strength of the receptor/ligand interaction can be determined experimentally with the aid of surface plasmon resonance spectroscopy (Biacore T200, GE Healthcare) and quantified by the so-called dissociation constant (Kd). Kd is thereby the reciprocal value of Ka, a thermodynamic value, which indicates which portion of the ligand is bound on average to the receptor protein and has the dimension of a concentration. The Biacore chip system is based on a glass slide with a gold film in a flow cell. TLR4 was immobilized on the NTA sensor chip via its his-tag in accordance with the manufacturer's protocol and the to-be-tested ligands, control compounds and LPS were passed over it dissolved in HBS-P+ with 50 μM EDTA at 20° C. with a flow rate of 10 μL/min in respectively 5 concentrations. The bond with TLR4 is measured as a change in the refractive index in the flow cell as compared to a reference cell as a response difference in RU. 1 RU corresponds thereby to 1 pg of bound ligand. After ligand injection, buffer is used for rinsing in order to ideally recreate the initial state, complete disassociation of the ligand.

T1 sequence (O00206 24-631 limits assumed): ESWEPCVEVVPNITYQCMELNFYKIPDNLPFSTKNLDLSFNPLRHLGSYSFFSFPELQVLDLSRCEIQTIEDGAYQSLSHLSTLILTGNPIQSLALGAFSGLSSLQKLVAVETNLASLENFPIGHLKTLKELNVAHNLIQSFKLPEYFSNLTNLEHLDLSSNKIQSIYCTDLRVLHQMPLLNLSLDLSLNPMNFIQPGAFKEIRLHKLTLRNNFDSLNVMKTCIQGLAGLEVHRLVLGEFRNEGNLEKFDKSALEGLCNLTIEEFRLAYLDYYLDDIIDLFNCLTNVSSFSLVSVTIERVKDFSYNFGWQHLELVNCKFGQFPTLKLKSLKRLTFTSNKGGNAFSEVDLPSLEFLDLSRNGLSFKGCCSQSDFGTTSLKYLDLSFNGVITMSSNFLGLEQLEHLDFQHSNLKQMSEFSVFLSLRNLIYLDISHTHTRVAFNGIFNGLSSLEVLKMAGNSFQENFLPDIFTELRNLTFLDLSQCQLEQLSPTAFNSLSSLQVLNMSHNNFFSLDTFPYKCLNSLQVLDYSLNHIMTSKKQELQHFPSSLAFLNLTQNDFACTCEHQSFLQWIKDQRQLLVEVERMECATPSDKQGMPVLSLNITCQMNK

Row | Structure (SMILES) | Ka in 1/M | Kd | reduction of binding affinity for TLR4 by the TAMRA labeling (T5635346 with vs without TAMRA labeling)
1 | Cc1ccc(C(=O)N2CCOCC2)c(O)c1 [T5635346, (2-hydroxy-4-methylphenyl)-morpholin-4-ylmethanone] | 4,135,649 1/M | 0.242 µM | 40 fold
2 | CC(C)CN1CCOC(CNC(=O)Nc2ccc3c(c2)OCO3)C1 (centres unmarked) [T5874283, 1-(1,3-benzodioxol-5-yl)-3-[[4-(2-methylpropyl)morpholin-2-yl]methyl]urea] | 9,803,922 1/M | 0.102 µM | –
